Assay results: patent publication US12667619B2, “Integrin targeting ligands and uses thereof” (Arrowhead Pharmaceuticals, Inc., priority 2018, dated 2026)

Experiments:
αvβ5 integrin = αvβ5 integrin (Homo sapiens, UniProt P06756+P18084); experiment: IC50 binding activity, αvβ5 integrin; settings: read-out: IC50 ανβ5
Source text: (§1) As reported in the following Table 1, IC50 binding data was obtained for the integrin targeting ligands of Structures 1c, 2c, and 3c, as w ell as an RGD-mimetic peptide:
(§2) Moreover, while the RGD-mimetic ligand is shown to have binding activity, the integrin targeting ligands of the present disclosure have increased stability, both with respect to serum stability in vim and chemical stability ex vim, compared to such peptide-based RGD-mimetic ligands.

ανβ6 = ανβ6 (Homo sapiens, UniProt P06756+P18564); experiment: IC50 binding activity, αvβ6 integrin
Source text: As reported in the following Table 1, IC50 binding data was obtained for the integrin targeting ligands of Structures 1c, 2c, and 3c, as w ell as an RGD-mimetic peptide: […]

αvβ3 integrin = αvβ3 integrin (Homo sapiens, UniProt P05106+P06756); experiment: IC50 binding activity, αvβ3 integrin; settings: read-out: IC50 ανβ3
Source text: as §1, §2

Chain of ανβ6 (P06756 31-1048): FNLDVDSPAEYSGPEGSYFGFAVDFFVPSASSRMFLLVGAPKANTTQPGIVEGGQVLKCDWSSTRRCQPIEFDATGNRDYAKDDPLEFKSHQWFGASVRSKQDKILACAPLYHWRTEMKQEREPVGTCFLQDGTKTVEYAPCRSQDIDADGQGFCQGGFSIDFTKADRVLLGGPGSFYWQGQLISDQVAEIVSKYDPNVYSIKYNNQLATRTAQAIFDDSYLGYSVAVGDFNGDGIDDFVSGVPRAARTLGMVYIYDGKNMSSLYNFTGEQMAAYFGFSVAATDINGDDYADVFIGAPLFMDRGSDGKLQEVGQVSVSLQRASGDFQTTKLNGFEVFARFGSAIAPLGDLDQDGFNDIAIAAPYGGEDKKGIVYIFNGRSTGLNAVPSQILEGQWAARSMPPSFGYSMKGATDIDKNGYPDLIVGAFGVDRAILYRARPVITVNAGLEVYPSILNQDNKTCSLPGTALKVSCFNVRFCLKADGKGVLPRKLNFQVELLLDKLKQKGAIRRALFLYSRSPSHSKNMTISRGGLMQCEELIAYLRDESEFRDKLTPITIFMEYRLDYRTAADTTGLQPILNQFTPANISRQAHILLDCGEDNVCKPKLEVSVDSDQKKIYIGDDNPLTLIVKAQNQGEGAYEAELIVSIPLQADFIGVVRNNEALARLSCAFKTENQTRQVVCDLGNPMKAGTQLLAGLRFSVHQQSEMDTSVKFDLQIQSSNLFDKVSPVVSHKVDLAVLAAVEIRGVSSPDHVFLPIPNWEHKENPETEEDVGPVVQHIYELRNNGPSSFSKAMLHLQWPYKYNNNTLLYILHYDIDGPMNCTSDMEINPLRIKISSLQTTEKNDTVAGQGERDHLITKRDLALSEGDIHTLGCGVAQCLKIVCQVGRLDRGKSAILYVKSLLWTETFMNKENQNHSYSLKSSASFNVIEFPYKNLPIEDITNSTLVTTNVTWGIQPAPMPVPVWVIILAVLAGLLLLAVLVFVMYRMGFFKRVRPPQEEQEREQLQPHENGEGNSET
Chain of ανβ6 (P18564 22-788): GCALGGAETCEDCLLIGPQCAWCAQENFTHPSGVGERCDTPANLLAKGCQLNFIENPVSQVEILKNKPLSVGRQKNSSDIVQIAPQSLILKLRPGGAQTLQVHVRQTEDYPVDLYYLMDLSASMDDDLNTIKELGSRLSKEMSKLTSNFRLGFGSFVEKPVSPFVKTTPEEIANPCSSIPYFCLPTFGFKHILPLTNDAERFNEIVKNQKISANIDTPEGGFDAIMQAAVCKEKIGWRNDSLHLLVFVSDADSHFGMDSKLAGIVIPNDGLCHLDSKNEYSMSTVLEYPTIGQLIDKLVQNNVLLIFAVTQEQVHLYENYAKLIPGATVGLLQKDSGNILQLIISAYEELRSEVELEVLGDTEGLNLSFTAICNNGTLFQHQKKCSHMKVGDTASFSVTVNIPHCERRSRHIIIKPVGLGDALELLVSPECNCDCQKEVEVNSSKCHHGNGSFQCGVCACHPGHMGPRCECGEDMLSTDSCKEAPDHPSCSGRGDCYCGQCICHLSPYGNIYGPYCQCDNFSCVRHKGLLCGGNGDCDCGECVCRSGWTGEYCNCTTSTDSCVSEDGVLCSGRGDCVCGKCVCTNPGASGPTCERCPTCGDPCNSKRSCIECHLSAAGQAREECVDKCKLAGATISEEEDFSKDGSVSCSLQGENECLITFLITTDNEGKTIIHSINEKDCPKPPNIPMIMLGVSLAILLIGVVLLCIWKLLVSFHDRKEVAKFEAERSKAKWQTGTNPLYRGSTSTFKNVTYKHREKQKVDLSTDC
Chain of αvβ5 integrin (P06756 31-1048): as the sequence (P06756 31-1048) above
Chain of αvβ5 integrin (P18084 24-799): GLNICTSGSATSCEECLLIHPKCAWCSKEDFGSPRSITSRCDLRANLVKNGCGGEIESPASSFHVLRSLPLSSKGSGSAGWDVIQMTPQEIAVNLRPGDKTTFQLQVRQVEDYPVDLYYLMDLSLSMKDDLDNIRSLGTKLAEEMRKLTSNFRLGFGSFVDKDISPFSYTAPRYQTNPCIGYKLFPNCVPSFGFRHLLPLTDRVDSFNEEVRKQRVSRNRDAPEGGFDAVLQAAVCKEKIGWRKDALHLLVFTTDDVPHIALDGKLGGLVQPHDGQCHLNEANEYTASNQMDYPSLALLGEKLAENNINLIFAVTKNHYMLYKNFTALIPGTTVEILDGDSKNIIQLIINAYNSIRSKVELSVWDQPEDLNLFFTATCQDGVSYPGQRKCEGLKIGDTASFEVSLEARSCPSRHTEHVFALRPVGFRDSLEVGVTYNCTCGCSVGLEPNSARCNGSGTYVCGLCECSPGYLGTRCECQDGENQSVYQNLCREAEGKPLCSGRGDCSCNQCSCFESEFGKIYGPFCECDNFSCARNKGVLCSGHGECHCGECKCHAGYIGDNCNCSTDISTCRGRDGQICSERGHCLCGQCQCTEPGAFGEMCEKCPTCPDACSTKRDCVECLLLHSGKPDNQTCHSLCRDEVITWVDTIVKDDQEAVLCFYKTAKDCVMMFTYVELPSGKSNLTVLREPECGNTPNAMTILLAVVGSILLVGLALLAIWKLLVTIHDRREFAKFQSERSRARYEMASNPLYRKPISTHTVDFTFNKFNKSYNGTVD
Chain of αvβ3 integrin (P06756 31-1048): as the sequence (P06756 31-1048) above
Chain of αvβ3 integrin (P05106 27-788): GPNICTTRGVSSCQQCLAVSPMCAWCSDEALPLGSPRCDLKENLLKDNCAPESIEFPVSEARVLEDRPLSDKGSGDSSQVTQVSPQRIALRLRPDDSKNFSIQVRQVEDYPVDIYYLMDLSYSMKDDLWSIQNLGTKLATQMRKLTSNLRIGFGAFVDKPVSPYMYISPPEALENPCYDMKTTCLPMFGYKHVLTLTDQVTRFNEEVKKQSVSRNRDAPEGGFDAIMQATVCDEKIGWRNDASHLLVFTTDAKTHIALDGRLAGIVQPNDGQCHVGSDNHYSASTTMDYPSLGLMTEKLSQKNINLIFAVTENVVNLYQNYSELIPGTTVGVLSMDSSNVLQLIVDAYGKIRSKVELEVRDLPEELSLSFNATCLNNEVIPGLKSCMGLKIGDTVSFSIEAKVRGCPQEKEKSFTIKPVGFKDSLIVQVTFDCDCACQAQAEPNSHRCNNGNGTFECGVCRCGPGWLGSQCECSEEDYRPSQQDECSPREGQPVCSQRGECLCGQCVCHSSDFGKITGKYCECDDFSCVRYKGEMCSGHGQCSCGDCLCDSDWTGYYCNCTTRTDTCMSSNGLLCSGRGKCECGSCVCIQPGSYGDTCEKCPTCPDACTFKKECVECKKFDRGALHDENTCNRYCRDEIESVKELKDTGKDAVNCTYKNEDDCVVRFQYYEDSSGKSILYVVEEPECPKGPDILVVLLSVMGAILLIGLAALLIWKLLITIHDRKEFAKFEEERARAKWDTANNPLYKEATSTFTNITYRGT

SMILES	IC50 (αvβ5 integrin)	IC50 (ανβ6)	IC50 (αvβ3 integrin)
[N-]=[N+]=NCCOCCOCCOCCOCCC(=O)NCCCOc1ccc([C@H](CC(=O)O)N2CCN(CCCc3ccc4c(n3)NCCC4)C2=O)cn1 [Structure 1c, (S)-3-(6-((1-azido-15-oxo-3,6,9,12-tetraoxa-16-azanonadecan-19-yl)oxy)pyridin-3-yl)-3-(2-oxo-3-(3-(5,6,7,8-tetrahydro-1,8-naphthyridin-2-yl)propyl)imidazolidin-1-yl)propanoic acid]	0.6 nM	5.3 nM	0.3 nM
[N-]=[N+]=NCCOCCOCCOCCOc1ccc([C@H](CC(=O)O)N2CCN(CCCc3ccc4c(n3)NCCC4)C2=O)cc1F [Structure 2c, (S)-3-(4-(2-(2-(2-(2-azidoethoxy)ethoxy)ethoxy)ethoxy)-3-fluorophenyl)-3-(2-oxo-3-(3-(5,6,7,8-tetrahydro-1,8-naphthyridin-2-yl)propyl)imidazolidin-1-yl)propanoic acid]	5.6 nM	8.9 nM	0.3 nM
